Where two headings read alike, the source gives them in different places.
How the values were obtained:
Assay type in all cases: cell-based
rat CB2 = target: T1, rat CB2 (Rattus norvegicus, UniProt Q9QZN9); experiment: PI hydrolysis (IP1) assay in HEK/Gqi9 cells expressing rat CB2; parameters: expressed in transfected cells; conditions: rCB2/Gqi9 cells
T1 sequence (Q9QZN9 1-360): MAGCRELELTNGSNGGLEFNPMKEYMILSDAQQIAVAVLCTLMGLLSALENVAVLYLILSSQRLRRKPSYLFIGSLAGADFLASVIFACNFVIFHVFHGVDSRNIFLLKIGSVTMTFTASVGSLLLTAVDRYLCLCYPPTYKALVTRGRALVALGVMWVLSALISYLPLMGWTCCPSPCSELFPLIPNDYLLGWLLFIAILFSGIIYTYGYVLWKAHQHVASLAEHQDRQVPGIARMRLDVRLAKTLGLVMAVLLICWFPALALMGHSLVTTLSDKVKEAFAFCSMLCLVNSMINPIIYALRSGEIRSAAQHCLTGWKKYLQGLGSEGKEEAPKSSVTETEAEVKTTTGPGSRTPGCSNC
Experimental: In a complementary assay, we used phosphoinositide (PI) hydrolysis in the presence of the chimeric G protein, Gqi9, to assess activity.
One day prior to experimentation, selected HEK/Gqi9 monoclonal cells stably expressing rat CB2 were plated onto poly-D-lysine coated clear-bottom 384-well plates (15,000 cells per well) in DMEM supplemented with 10% FBS and 20 mM HEPES. Ten minutes prior to the assay, the cell culture medium was replaced with 20 µL 37 °C Hank’s balanced salt solution (HBSS; with Ca^2+, Mg^2+, glucose). IP1 stimulation was then initiated by adding 5 µL of 5× agonist dissolved in HBSS plus 40 mM Li^+, and cells were incubated for an additional hour before aspiration and addition of Lysis Buffer. IP1 levels were determined using the Cisbio HTRF IP-ONE assay kit according to the manufacturer’s instructions, and fluorescence was measured using an Envision plate reader (PerkinElmer, Waltham, MA, USA). Data were acquired as HTRF ratio (665/620) and expressed as nanomolar levels of IP1.

[1] = target: T2, M4 muscarinic receptor expressed in HEK/GIRK cells (no CB receptor) (Homo sapiens, UniProt P08173); experiment: Thallium flux assay in parental HEK/GIRK cells (no CB receptor), acetylcholine as agonist; conditions: presence of EC20 acetylcholine, cells without CB receptor
T2 construct: host or cells: HEK/GIRK cells without CB receptor
T2 sequence (P08173 1-479): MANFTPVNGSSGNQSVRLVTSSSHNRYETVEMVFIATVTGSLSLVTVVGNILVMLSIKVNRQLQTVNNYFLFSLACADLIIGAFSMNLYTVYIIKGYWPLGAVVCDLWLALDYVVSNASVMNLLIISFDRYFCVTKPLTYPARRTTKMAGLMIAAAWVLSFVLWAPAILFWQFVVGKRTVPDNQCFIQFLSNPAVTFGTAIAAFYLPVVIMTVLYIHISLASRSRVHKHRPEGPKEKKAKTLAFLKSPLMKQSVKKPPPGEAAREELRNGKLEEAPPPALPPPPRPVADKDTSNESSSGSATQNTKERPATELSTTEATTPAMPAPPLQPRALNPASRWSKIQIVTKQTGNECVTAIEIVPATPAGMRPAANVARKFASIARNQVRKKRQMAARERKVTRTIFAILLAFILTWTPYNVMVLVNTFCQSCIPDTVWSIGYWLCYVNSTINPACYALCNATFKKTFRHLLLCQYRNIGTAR
Description: Mycophenolate mofetil is an immunosuppressant used to prevent organ transplant rejection and to treat autoimmune disorders such as lupus. To determine if mycophenolate mofetil exerts its activity in the thallium flux assay through rCB2, we tested it for activity in HEK cells expressing GIRK channels but not rCB2. Submaximal concentrations of acetylcholine were used as the agonist, targeting an M4 muscarinic receptor expressed in these HEK/GIRK cells. […] It was also critical to determine if mycophenolate mofetil was selective for the rCB2 versus rCB1 receptors, as activation of rCB1 receptors can have negative side effects, including anxiety, paranoia, and psychosis. […]
Thallium flux assays were performed as previously described in Niswender et al., 2008 [31]. […] Thallium flux was measured using the Hamamatsu FDSS/μCELL Kinetic Plate Imager (Bridgewater, NJ, USA). After the establishment of a fluorescence baseline (excitation, 480 ± 20 nm; emission, 540 ± 30 nm), 20 µL (2×) of test compound was added to the cells at 1 s and the response was measured. […] Raw kinetic data were analyzed in a multi-step process: (1) Fluorescence readings for each time point in a well were divided by the fluorescence reading at the initial time point to account for differences in cell number, non-uniform illumination, and dye-loading. […]

Human CB2 = Human CB2 (Homo sapiens, UniProt P34972); experiment: Activity at the human CB2 receptor (thallium flux)
Chain of Human CB2 (P34972 whole entry): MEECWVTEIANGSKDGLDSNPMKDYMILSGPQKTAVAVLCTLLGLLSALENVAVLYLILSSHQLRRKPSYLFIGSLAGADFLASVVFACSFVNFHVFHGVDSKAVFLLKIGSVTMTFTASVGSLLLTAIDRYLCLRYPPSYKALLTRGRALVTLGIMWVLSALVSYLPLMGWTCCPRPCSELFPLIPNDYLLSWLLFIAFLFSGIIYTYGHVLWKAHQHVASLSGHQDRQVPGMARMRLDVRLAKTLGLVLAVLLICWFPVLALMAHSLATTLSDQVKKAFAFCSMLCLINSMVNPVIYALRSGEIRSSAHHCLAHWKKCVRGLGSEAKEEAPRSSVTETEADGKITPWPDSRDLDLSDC

| PI hydrolysis Max IP1, absence of 2-AG (rat CB2; absence of 2-AG, IP1 concentration) [nM] | EC50 (rat CB2; absence of 2-AG, read-out: PI hydrolysis potency, absence of 2-AG) [nM] | PI hydrolysis Max IP1, presence of 2-AG (rat CB2; presence of EC20 2-AG, IP1 concentration) [nM] | EC50 (rat CB2; presence of EC20 2-AG, read-out: PI hydrolysis potency, presence of 2-AG) [nM] | HEK GIRK (+) ACh pEC50 ± SEM % Max ± SEM [1] | human CB2 receptor % Max (Human CB2) [%] | EC50 (Human CB2; read-out: human CB2 receptor pEC50 (converted)) [nM] | Compound |
| --- | --- | --- | --- | --- | --- | --- | --- |
| 438 ± 32 | 521 | 633 ± 122 | 700 | Inactive | 36 ± 4 | 2000 | COc1c(C)c2c(c(O)c1C/C=C(\C)CCC(=O)OCCN1CCOCC1)C(=O)OC2 [Mycophenolate mofetil] |
|  |  |  |  | Inactive |  |  | COc1c(C)c2c(c(O)c1C/C=C(\C)CCC(=O)O)C(=O)OC2 [Mycophenolic acid] |

— article PMC12112332, “Characterization of Novel and Known Activators of Cannabinoid Receptor Subtype 2 Reveals Mixed Pharmacology That Differentiates Mycophenolate Mofetil and GW-842,166X from MDA7” (International Journal of Molecular Sciences, 2025)
